Measurements taken from patent publication US9695155B2, “Herbicidal substituted pyrimidinyloxy benzene compounds” (E. I. DU PONT DE NEMOURS AND COMPANY, priority 2013, dated 2017).

How the values were obtained:
[1] = tested on: barnyardgrass; experiment: Test A preemergence; format: in vivo, Echinochloa crus-galli; conditions: for Barnyardgrass plant response rating: 500 g ai/ha
Summary of the method: (§1)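 Compounds in non-phytotoxic solvent with surfactant applied as soil spray preemergence, or postemergence to plants 2-10 cm at one- to two-leaf stage, in loam/sand. After approximately 10 days in greenhouse, injury rated visually versus untreated controls, 0 (no effect) to 100 (complete control).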

[2] = tested on: large (Lg) crabgrass; experiment: Test A preemergence; format: in vivo, Digitaria sanguinalis; conditions: for Crabgrass, Large plant response rating: 500 g ai/ha
Summary of the method: as §1

[3] = tested on: giant foxtail; experiment: Test A preemergence; format: in vivo, Setaria faberii; conditions: for Foxtail, Giant plant response rating: 500 g ai/ha
Summary of the method: as §1

[4] = tested on: morningglory; experiment: Test A preemergence; format: in vivo, Ipomoea spp.; conditions: for Morningglory plant response rating: 500 g ai/ha
Summary of the method: as §1

[5] = tested on: pigweed; experiment: Test A preemergence; format: in vivo, Amaranthus retroflexus; conditions: for Pigweed plant response rating: 500 g ai/ha
Summary of the method: as §1

[6] = tested on: velvetleaf; experiment: Test A preemergence; format: in vivo, Abutilon theophrasti; conditions: for Velvetleaf plant response rating: 500 g ai/ha
Summary of the method: as §1

[7] = tested on: wheat; experiment: Test A preemergence; format: in vivo, Triticum aestivum; conditions: for Wheat plant response rating: 500 g ai/ha
Summary of the method: as §1

[8] = tested on: corn; experiment: Test A preemergence; format: in vivo, Zea mays; conditions: for Corn plant response rating: 500 g ai/ha
Summary of the method: as §1

[9] = tested on: barnyardgrass; experiment: Test A postemergence; format: in vivo, Echinochloa crus-galli
Summary of the method: as §1

[10] = tested on: large (Lg) crabgrass; experiment: Test A postemergence; format: in vivo, Digitaria sanguinalis
Summary of the method: as §1

[11] = tested on: giant foxtail; experiment: Test A postemergence; format: in vivo, Setaria faberii
Summary of the method: as §1

[12] = tested on: morningglory; experiment: Test A postemergence; format: in vivo, Ipomoea spp.
Summary of the method: as §1

[13] = tested on: pigweed; experiment: Test A postemergence; format: in vivo, Amaranthus retroflexus
Summary of the method: as §1

[14] = tested on: velvetleaf; experiment: Test A postemergence; format: in vivo, Abutilon theophrasti
Summary of the method: as §1

[15] = tested on: wheat; experiment: Test A postemergence; format: in vivo, Triticum aestivum
Summary of the method: as §1

[16] = tested on: corn; experiment: Test A postemergence; format: in vivo, Zea mays
Summary of the method: as §1

[17] = tested on: rice; experiment: Test B flooded paddy test; format: in vivo, Oryza sativa; conditions: Flood, 250 g ai/ha; 0 to 100 scale where 0 is no effect and 100 is complete control
Summary of the method: (§2)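 Evaluation is visual, against untreated controls, 13 to 15 days after treatment. Before treatment, plants reached the 2-leaf stage; pots were then flooded 3 cm deep, compound was added to the water, and that level was maintained. Ratings run 0 to 100, with 100 meaning complete control.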

[18] = tested on: sedge, umbrella; experiment: Test B flooded paddy test; format: in vivo, Cyperus difformis; conditions: Flood, 250 g ai/ha; 0 to 100 scale where 0 is no effect and 100 is complete control
Summary of the method: as §2

[19] = tested on: Heteranthera limosa; experiment: Test B flooded paddy test; format: in vivo; conditions: Flood, 250 g ai/ha; 0 to 100 scale where 0 is no effect and 100 is complete control
Summary of the method: as §2

[20] = tested on: barnyardgrass; experiment: Test B flooded paddy test; format: in vivo, Echinochloa crus-galli; conditions: Flood, 250 g ai/ha; 0 to 100 scale where 0 is no effect and 100 is complete control
Summary of the method: as §2

[21] = 0 to 100 scale where 0 is no effect and 100 is complete control
[22] = 125 g ai/ha, 0 to 100 scale where 0 is no effect and 100 is complete control
[23] = 500 g ai/ha, 0 to 100 scale where 0 is no effect and 100 is complete control
[24] = 0 to 100 scale, 0 no effect, 100 complete control, approx. 10 days
[25] = 500 g ai/ha, 0 to 100 scale, 0 no effect, 100 complete control

N#Cc1cnc(Oc2ccccc2-n2cccn2)nc1 [Compound 226]
Barnyardgrass plant response rating (0 to 100 scale, 0 is no effect, 100 is complete control) ([1]; 125 g ai/ha): 0
Barnyardgrass plant response rating [1, 21]: 0
Crabgrass, Large plant response rating (0 to 100 scale) ([2]; 125 g ai/ha): 0
Crabgrass, Large plant response rating [2, 21]: 0
Foxtail, Giant plant response rating (0 to 100 scale) ([3]; 125 g ai/ha): 0
Foxtail, Giant plant response rating [3, 21]: 0
Morningglory plant response rating (0 to 100 scale) ([4]; 125 g ai/ha): 0
Morningglory plant response rating [4, 21]: 0
Pigweed plant response rating (0 to 100 scale) ([5]; 125 g ai/ha): 0
Pigweed plant response rating [5, 21]: 0
Velvetleaf plant response rating (0 to 100 scale) ([6]; 125 g ai/ha): 0
Velvetleaf plant response rating [6, 21]: 0
Wheat plant response rating (0 to 100 scale) ([7]; 125 g ai/ha): 0
Wheat plant response rating [7, 21]: 0
Corn plant response rating (0 to 100 scale) ([8]; 125 g ai/ha): 0
Corn plant response rating [8, 21]: 0
Barnyardgrass plant response rating [9, 22]: 0
Plant response rating, Barnyardgrass [9, 23]: 0
Crabgrass, Large plant response rating [10, 22]: 0
Plant response rating, Crabgrass, Large [10, 23]: 0
Foxtail, Giant plant response rating [11, 22]: 0
Plant response rating, Foxtail, Giant [11, 23]: 0
Morningglory plant response rating [12, 22]: 0
Plant response rating, Morningglory [12, 23]: 0
Pigweed plant response rating [13, 22]: 0
Plant response rating, Pigweed [13, 23]: 10
Velvetleaf plant response rating [14, 22]: 0
Plant response rating, Velvetleaf [14, 23]: 10
Wheat plant response rating [15, 22]: 0
Plant response rating, Wheat [15, 23]: 0
Corn plant response rating [16, 22]: 0
Plant response rating, Corn [16, 23]: 0
Plant response rating, Rice [17]: 0
Plant response rating, Sedge, Umbrella [18]: 0
Plant response rating, Ducksalad [19]: 0
Plant response rating, Barnyardgrass [20]: 0

Clc1cnc(Oc2ccccc2-n2ccc(Br)n2)nc1 [Compound 21]
Plant response rating, Barnyardgrass [1, 22]: 20
Barnyardgrass plant response rating [1, 24]: 30
Plant response rating, Crabgrass, Large [2, 22]: 90
Crabgrass, Large plant response rating [2, 24]: 100
Plant response rating, Foxtail, Giant [3, 22]: 70
Foxtail, Giant plant response rating [3, 24]: 100
Plant response rating, Morningglory [4, 22]: 0
Morningglory plant response rating [4, 24]: 0
Plant response rating, Pigweed [5, 22]: 90
Pigweed plant response rating [5, 24]: 100
Plant response rating, Velvetleaf [6, 22]: 0
Velvetleaf plant response rating [6, 24]: 20
Plant response rating, Wheat [7, 22]: 0
Wheat plant response rating [7, 24]: 0
Plant response rating, Corn [8, 22]: 0
Corn plant response rating [8, 24]: 0
Plant response rating, Barnyardgrass [9, 22]: 0
Plant response rating, Barnyardgrass [9, 25]: 40
Plant response rating, Crabgrass, Large [10, 22]: 20
Plant response rating, Crabgrass, Large [10, 25]: 50
Plant response rating, Foxtail, Giant [11, 22]: 30
Plant response rating, Foxtail, Giant [11, 25]: 90
Plant response rating, Morningglory [12, 22]: 40
Plant response rating, Morningglory [12, 25]: 80
Plant response rating, Pigweed [13, 22]: 90
Plant response rating, Pigweed [13, 25]: 100
Plant response rating, Velvetleaf [14, 22]: 50
Plant response rating, Velvetleaf [14, 25]: 80
Plant response rating, Wheat [15, 22]: 0
Plant response rating, Wheat [15, 25]: 20
Plant response rating, Corn [16, 22]: 0
Plant response rating, Corn [16, 25]: 30
Plant response rating, Rice [17]: 15
Plant response rating, Sedge, Umbrella [18]: 70
Plant response rating, Ducksalad [19]: 40
Plant response rating, Barnyardgrass [20]: 25

N#Cc1cccc(Oc2ncc(Cl)cn2)c1-n1cccn1 [Compound 208]
Barnyardgrass plant response rating (0 to 100 scale, 0 is no effect, 100 is complete control) ([1]; 125 g ai/ha): 0
Barnyardgrass plant response rating [1, 21]: 70
Crabgrass, Large plant response rating (0 to 100 scale) ([2]; 125 g ai/ha): 20
Crabgrass, Large plant response rating [2, 21]: 100
Foxtail, Giant plant response rating (0 to 100 scale) ([3]; 125 g ai/ha): 20
Foxtail, Giant plant response rating [3, 21]: 90
Morningglory plant response rating (0 to 100 scale) ([4]; 125 g ai/ha): 0
Morningglory plant response rating [4, 21]: 30
Pigweed plant response rating (0 to 100 scale) ([5]; 125 g ai/ha): 30
Pigweed plant response rating [5, 21]: 100
Velvetleaf plant response rating (0 to 100 scale) ([6]; 125 g ai/ha): 0
Velvetleaf plant response rating [6, 21]: 50
Wheat plant response rating (0 to 100 scale) ([7]; 125 g ai/ha): 0
Wheat plant response rating [7, 21]: 20
Corn plant response rating (0 to 100 scale) ([8]; 125 g ai/ha): 0
Corn plant response rating [8, 21]: 0
Barnyardgrass plant response rating [9, 22]: 0
Plant response rating, Barnyardgrass [9, 23]: 0
Crabgrass, Large plant response rating [10, 22]: 0
Plant response rating, Crabgrass, Large [10, 23]: 20
Foxtail, Giant plant response rating [11, 22]: 0
Plant response rating, Foxtail, Giant [11, 23]: 20
Morningglory plant response rating [12, 22]: 20
Plant response rating, Morningglory [12, 23]: 80
Pigweed plant response rating [13, 22]: 30
Plant response rating, Pigweed [13, 23]: 100
Velvetleaf plant response rating [14, 22]: 40
Plant response rating, Velvetleaf [14, 23]: 60
Wheat plant response rating [15, 22]: 0
Plant response rating, Wheat [15, 23]: 0
Corn plant response rating [16, 22]: 0
Plant response rating, Corn [16, 23]: 20
Plant response rating, Rice [17]: 0
Plant response rating, Sedge, Umbrella [18]: 0
Plant response rating, Ducksalad [19]: 0
Plant response rating, Barnyardgrass [20]: 0
